# Laboratory results taken from patent US6977262B2, “Dihydropyrazolopyridine compounds and pharmaceutical use thereof” (Mitsubishi Pharma Corporation, priority 2001, dated 2005).
row,Compound,melting point
1,"C=CCCC(=O)n1ncc2c1NC(CCC)=C(C#N)C2c1ccccc1Cl (centres unmarked) [Example 357, 4-(2-Chlorophenyl)-5-cyano-4,7-dihydro-1-(4-pentenoyl)-6-propyl-1H-pyrazolo[3,4-b]pyridine]",140 °C
2,"C=CCCC(=O)n1cc2c(n1)NC(CCC)=C(C#N)C2c1ccccc1Cl (centres unmarked) [Example 358, 4-(2-Chlorophenyl)-5-cyano-4,7-dihydro-2-(4-pentenoyl)-6-propyl-2H-pyrazolo[3,4-b]pyridine]",176 to 177 °C
3,"CCCC1=C(C#N)C(c2cccc(C)n2)c2c[nH]nc2N1 (centres unmarked) [Example 359, 5-Cyano-4,7-dihydro-4-(6-methylpyridin-2-yl)-6-propyl-2H-pyrazolo[3,4-b]pyridine]",177 to 181 °C
4,"CCCC1=C(C#N)C(c2cccc(N3CCOCC3)c2)c2c[nH]nc2N1 (centres unmarked) [Example 364, 5-Cyano-4,7-dihydro-4-(3-(morpholin-4-yl)phenyl)-6-propyl-2H-pyrazolo[3,4-b]pyridine]",196 to 200 °C
5,"N#CC1=C(C2CC2)Nc2n[nH]cc2C1c1cccc(N2CCOCC2)c1 (centres unmarked) [Example 366, 5-Cyano-6-cyclopropyl-4,7-dihydro-4-(3-(morpholin-4-yl)phenyl)-2H-pyrazolo[3,4-b]pyridine]",> 260 °C
6,"CC(C)(C)OC(=O)N1CCC(C2=C(C#N)C(c3cccc4nonc34)c3c[nH]nc3N2)CC1 (centres unmarked) [Example 1001, 4-(2,1,3-Benzoxadiazol-4-yl)-6-(1-t-butoxycarbonylpiperidin-4-yl)-5-cyano-4,7-dihydro-2H-pyrazolo[3,4-b]pyridine]",226 °C
7,"CC(C)(C)OC(=O)N1CCCC(C2=C(C#N)C(c3cccc4nonc34)c3c[nH]nc3N2)C1 (centres unmarked) [Example 1004, 4-(2,1,3-Benzoxadiazol-4-yl)-6-(1-t-butoxycarbonylpiperidin-3-yl)-5-cyano-4,7-dihydro-2H-pyrazolo[3,4-b]pyridine]",229 °C
8,"CC(C)(C)OC(=O)N1CC=C(C2=C(C#N)C(c3cccc4nonc34)c3c[nH]nc3N2)CC1 (centres unmarked) [Example 1012, 4-(2,1,3-Benzoxadiazol-4-yl)-6-(1-t-butoxycarbonyl-1,2,3,6-tetrahydropyridin-4-yl)-5-cyano-4,7-dihydro-2H-pyrazolo[3,4-b]pyridine]",222 °C
9,"CN(CCC1=C(C#N)C(c2cccc3nonc23)c2c[nH]nc2N1)C(=O)OC(C)(C)C (centres unmarked) [Example 1015, 4-(2,1,3-Benzoxadiazol-4-yl)-6-(2-(N-t-butoxycarbonyl-N-methylamino)ethyl)-5-cyano-4,7-dihydro-2H-pyrazolo[3,4-b]-pyridine]",240 °C
10,"CC(C)(C)OC(=O)NCCC1=C(C#N)C(c2cccc3nonc23)c2c[nH]nc2N1 (centres unmarked) [Example 1017, 4-(2,1,3-Benzoxadiazol-4-yl)-6-(2-(N-t-butoxycarbonyl-amino)ethyl)-5-cyano-4,7-dihydro-2H-pyrazolo[3,4-b]pyridine]",231 °C
11,"CN(C)CCC1=C(C#N)C(c2cccc3nonc23)c2c[nH]nc2N1 (centres unmarked) [Example 1019, 4-(2,1,3-Benzoxadiazol-4-yl)-5-cyano-4,7-dihydro-6-(2-(N,N-dimethylamino)ethyl)-2H-pyrazolo[3,4-b]pyridine]",215 °C
12,"CN(CC1=C(C#N)C(c2cccc3nonc23)c2c[nH]nc2N1)C(=O)OC(C)(C)C (centres unmarked) [Example 1020, 4-(2,1,3-Benzoxadiazol-4-yl)-6-((N-t-butoxycarbonyl-N-methylamino)methyl)-5-cyano-4,7-dihydro-2H-pyrazolo[3,4-b]-pyridine]",207 °C
13,"N#CC1=C(C2CCN(C(=O)c3ccccc3)CC2)Nc2n[nH]cc2C1c1cccc2nonc12 (centres unmarked) [Example 1026, 4-(2,1,3-Benzoxadiazol-4-yl)-6-(1-benzoylpiperidin-4-yl)-5-cyano-4,7-dihydro-2H-pyrazolo[3,4-b]pyridine]",228 °C
14,"CS(=O)(=O)N1CCC(C2=C(C#N)C(c3cccc4nonc34)c3c[nH]nc3N2)CC1 (centres unmarked) [Example 1029, 4-(2,1,3-Benzoxadiazol-4-yl)-5-cyano-4,7-dihydro-6-(1-methanesulfonylpiperidin-4-yl)-2H-pyrazolo[3,4-b]pyridine]",243 °C
15,"CC(C)(C)OC(=O)N1CCC(C2=C(C#N)C(c3cccc(C#N)c3Br)c3c[nH]nc3N2)CC1 (centres unmarked) [Example 1036, 4-(2-Bromo-3-cyanophenyl)-6-(1-t-butoxycarbonylpiperidin-4-yl)-5-cyano-4,7-dihydro-2H-pyrazolo[3,4-b]pyridine]",> 270 °C
16,"CC(C)(C)OC(=O)N1CCCC(C2=C(C#N)C(c3cccc(C#N)c3Br)c3c[nH]nc3N2)C1 (centres unmarked) [Example 1039, 4-(2-Bromo-3-cyanophenyl)-6-(1-t-butoxycarbonylpiperidin-3-yl)-5-cyano-4,7-dihydro-2H-pyrazolo[3,4-b]pyridine]",238 °C
17,"CC(C)(C)OC(=O)N1CCOC(C2=C(C#N)C(c3cccc(C#N)c3Br)c3c[nH]nc3N2)C1 (centres unmarked) [Example 1044, 4-(2-Bromo-3-cyanophenyl)-6-(4-t-butoxycarbonylmorpholin-2-yl)-5-cyano-4,7-dihydro-2H-pyrazolo[3,4-b]pyridine]",219 °C

# The remaining lines, values ahead:
row,melting point,Compound
1,218 to 220 °C,"CCCC1=C(C#N)C(c2cccc(C#N)c2Br)c2c[nH]nc2N1C (centres unmarked) [Example 348, 4-(2-Bromo-3-cyanophenyl)-5-cyano-7-methyl-6-propyl-4,7-dihydro-2H-pyrazolo[3,4-b]pyridine]"
2,202 to 205 °C,"CCCC1=C(C#N)C(c2cccc(Br)c2)c2c[nH]nc2N1 (centres unmarked) [Example 362, 4-(3-Bromophenyl)-5-cyano-4,7-dihydro-6-propyl-2H-pyrazolo[3,4-b]pyridine]"
3,209 to 212 °C,"CCCC1=C(C#N)C(c2ccc(F)cc2Cl)c2c[nH]nc2N1 (centres unmarked) [Example 363, 5-Cyano-4,7-dihydro-4-(4-fluoro-2-chlorophenyl)-6-propyl-2H-pyrazolo[3,4-b]pyridine]"
4,254 to 257 °C,"CC(C)C1=C(C#N)C(c2cccc(N3CCOCC3)c2)c2c[nH]nc2N1 (centres unmarked) [Example 365, 5-Cyano-4,7-dihydro-4-(3-(morpholin-4-yl)phenyl)-6-isopropyl-2H-pyrazolo[3,4-b]pyridine]"
5,202 °C,"N#CC1=C(C2CCCNC2)Nc2n[nH]cc2C1c1cccc2nonc12 (centres unmarked) [Example 1005, 4-(2,1,3-Benzoxadiazol-4-yl)-5-cyano-4,7-dihydro-6-(piperidin-3-yl)-2H-pyrazolo[3,4-b]pyridine]"
6,228 °C,"CN1CCCC(C2=C(C#N)C(c3cccc4nonc34)c3c[nH]nc3N2)C1 (centres unmarked) [Example 1006, 4-(2,1,3-Benzoxadiazol-4-yl)-5-cyano-4,7-dihydro-6-(1-methylpiperidin-3-yl)-2H-pyrazolo[3,4-b]pyridine]"
7,180 °C,"N#CC1=C(C2=CCNCC2)Nc2n[nH]cc2C1c1cccc2nonc12 (centres unmarked) [Example 1013, 4-(2,1,3-Benzoxadiazol-4-yl)-5-cyano-4,7-dihydro-6-(1,2,3,6-tetrahydropyridin-4-yl)-2H-pyrazolo[3,4-b]pyridine]"
8,218 °C,"CN1CC=C(C2=C(C#N)C(c3cccc4nonc34)c3c[nH]nc3N2)CC1 (centres unmarked) [Example 1014, 4-(2,1,3-Benzoxadiazol-4-yl)-5-cyano-4,7-dihydro-6-(1-methyl-1,2,3,6-tetrahydropyridin-4-yl)-2H-pyrazolo[3,4-b]pyridine]"
9,174 °C,"CNCCC1=C(C#N)C(c2cccc3nonc23)c2c[nH]nc2N1 (centres unmarked) [Example 1016, 4-(2,1,3-Benzoxadiazol-4-yl)-5-cyano-4,7-dihydro-6-(2-(N-methylamino)ethyl)-2H-pyrazolo[3,4-b]pyridine]"
10,237 °C,"CC(=O)N1CC=C(C2=C(C#N)C(c3cccc4nonc34)c3c[nH]nc3N2)CC1 (centres unmarked) [Example 1027, 6-(1-Acetyl-1,2,3,6-tetrahydropyridin-4-yl)-4-(2,1,3-benzoxadiazol-4-yl)-5-cyano-4,7-dihydro-2H-pyrazolo[3,4-b]-pyridine]"
11,> 270 °C,"N#CC1=C(C2CCN(C(=N)N)CC2)Nc2n[nH]cc2C1c1cccc2nonc12 (centres unmarked) [Example 1031, 4-(2,1,3-Benzoxadiazol-4-yl)-5-cyano-4,7-dihydro-6-(1-guanylpiperidin-4-yl)-2H-pyrazolo[3,4-b]pyridine]"
12,219 °C,"CC(=O)N1CCCC(C2=C(C#N)C(c3cccc4nonc34)c3c[nH]nc3N2)C1 (centres unmarked) [Example 1032, 6-(1-Acetylpiperidin-3-yl)-4-(2,1,3-benzoxadiazol-4-yl)-5-cyano-4,7-dihydro-2H-pyrazolo[3,4-b]pyridine]"
13,231 °C,"CCN1CCC(C2=C(C#N)C(c3cccc4nonc34)c3c[nH]nc3N2)CC1 (centres unmarked) [Example 1033, 4-(2,1,3-Benzoxadiazol-4-yl)-5-cyano-4,7-dihydro-6-(1-ethylpiperidin-4-yl)-2H-pyrazolo[3,4-b]pyridine]"
14,246 °C,"CCCN1CCC(C2=C(C#N)C(c3cccc4nonc34)c3c[nH]nc3N2)CC1 (centres unmarked) [Example 1034, 4-(2,1,3-Benzoxadiazol-4-yl)-5-cyano-4,7-dihydro-6-(1-propylpiperidin-4-yl)-2H-pyrazolo[3,4-b]pyridine]"
15,260 °C,"CC(C)N1CCC(C2=C(C#N)C(c3cccc4nonc34)c3c[nH]nc3N2)CC1 (centres unmarked) [Example 1035, 4-(2,1,3-Benzoxadiazol-4-yl)-5-cyano-4,7-dihydro-6-(1-iso-propylpiperidin-4-yl)-2H-pyrazolo[3,4-b]pyridine]"
16,> 270 °C,"N#CC1=C(C2CCNCC2)Nc2n[nH]cc2C1c1cccc(C#N)c1Br (centres unmarked) [Example 1037, 4-(2-Bromo-3-cyanophenyl)-5-cyano-4,7-dihydro-6-(piperidin-4-yl)-2H-pyrazolo[3,4-b]pyridine]"
17,> 270 °C,"CN1CCC(C2=C(C#N)C(c3cccc(C#N)c3Br)c3c[nH]nc3N2)CC1 (centres unmarked) [Example 1038, 4-(2-Bromo-3-cyanophenyl)-5-cyano-4,7-dihydro-6-(1-methylpiperidin-4-yl)-2H-pyrazolo[3,4-b]pyridine]"
18,226 °C,"N#CC1=C(C2=CCNCC2)Nc2n[nH]cc2C1c1cccc(C#N)c1Br (centres unmarked) [Example 1047, 4-(2-Bromo-3-cyanophenyl)-5-cyano-4,7-dihydro-6-(1,2,3,6-tetrahydropyridin-4-yl)-2H-pyrazolo[3,4-b]pyridine]"
